Test results published in patent US20190218531A1 (priority 2018, published 2019).

Tested on: B. subtilis 3610
Assay type: cell-based, Bacillus subtilis

## O=S(O)(O)=S [thiosulfate]
  effect on inhibition of B. subtilis growth in co-culture with S. elongatus: mitigated

## CN(C)C(=O)Nc1ccc(Cl)c(Cl)c1 [DCMU, 3-(3,4-dichlorophenyl)-1,1-dimethylurea]
  effect on inhibition of B. subtilis growth in co-culture with S. elongatus: mitigated
